Reference: patent US20250313535A1, “ALPHA 4 BETA 7 INTEGRIN MODULATORS AND USES THEREOF” (DICE MOLECULES SV, INC., priority 2022, published 2025)
Like-named read-outs stand apart in the source and are kept apart here.

What was measured:
Type in all cases: cell-based
[1] = biological target: T1, α4β7 integrin (Homo sapiens (Human), UniProt P13612+P26010); test: Integrin Adhesion Assay: Protocol 1 (MAdCAM-coated plate, RPMI-8866 cells, CellTiter GLO readout)
Summary of the method: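 RPMI-8866 cells (2×10^6 per mL) added with compounds (1% DMSO) to MAdCAM-coated wells blocked in HEPES/NaCl buffer with 1 mM MnCl2, 0.1 mM CaCl2, 1% BSA; 1 h at 37° C, 5% CO2. After four washes, bound cells read by CellTiter GLO luminescence; % inhibition vs DMSO and control wells, 4-parameter fit.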

[2] = biological target: T1, α4β7 integrin; test: Integrin Adhesion Assay: Protocol 4 (MAdCAM-coated plate, RPMI-8866 cells with stable LOF mutation of the ITGB1 gene); settings: RPMI-8866 cells with stable LOF mutation of the ITGB1 gene; read-out: Mean IC50 α4β7 KO^a
Summary of the method: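 RPMI-8866 cells with CRISPR/Cas9 knockout of ITGB1 (2×10^6/mL) were added to MAdCAM-coated wells with compound (1% DMSO) in HEPES/NaCl buffer with 1 mM MnCl2, 0.1 mM CaCl2 and 1% BSA, then incubated 1 h at 37 °C. After four washes, adherent cells were quantified by CellTiter-Glo luminescence. Percent inhibition versus DMSO and control compound was fitted to 4-parameter curves.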

[3] = biological target: α4β1 integrin (Homo sapiens (Human), UniProt P05556+P13612); test: Integrin Adhesion Assay: Protocol 5 (VCAM-coated plate, RPMI-8866 cells with stable LOF mutation of the ITGB7 gene)
Summary of the method: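 RPMI-8866 B cells with CRISPR/Cas9 ITGB7 knockout (clonal, verified by flow cytometry) adhered to VCAM-coated wells for 1 h at 37° C in HEPES/NaCl buffer with 1 mM MnCl2, 0.1 mM CaCl2, 1% BSA, 1% DMSO. Bound cells quantified by CellTiter-Glo luminescence after washing; % inhibition versus DMSO and control, 4-parameter fit.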

[4] = RPMI-8866 cells with stable LOF mutation of the ITGB7 gene, read-out: Mean IC50 α4β1 KO^b

T1 sequence (P13612 34-1032): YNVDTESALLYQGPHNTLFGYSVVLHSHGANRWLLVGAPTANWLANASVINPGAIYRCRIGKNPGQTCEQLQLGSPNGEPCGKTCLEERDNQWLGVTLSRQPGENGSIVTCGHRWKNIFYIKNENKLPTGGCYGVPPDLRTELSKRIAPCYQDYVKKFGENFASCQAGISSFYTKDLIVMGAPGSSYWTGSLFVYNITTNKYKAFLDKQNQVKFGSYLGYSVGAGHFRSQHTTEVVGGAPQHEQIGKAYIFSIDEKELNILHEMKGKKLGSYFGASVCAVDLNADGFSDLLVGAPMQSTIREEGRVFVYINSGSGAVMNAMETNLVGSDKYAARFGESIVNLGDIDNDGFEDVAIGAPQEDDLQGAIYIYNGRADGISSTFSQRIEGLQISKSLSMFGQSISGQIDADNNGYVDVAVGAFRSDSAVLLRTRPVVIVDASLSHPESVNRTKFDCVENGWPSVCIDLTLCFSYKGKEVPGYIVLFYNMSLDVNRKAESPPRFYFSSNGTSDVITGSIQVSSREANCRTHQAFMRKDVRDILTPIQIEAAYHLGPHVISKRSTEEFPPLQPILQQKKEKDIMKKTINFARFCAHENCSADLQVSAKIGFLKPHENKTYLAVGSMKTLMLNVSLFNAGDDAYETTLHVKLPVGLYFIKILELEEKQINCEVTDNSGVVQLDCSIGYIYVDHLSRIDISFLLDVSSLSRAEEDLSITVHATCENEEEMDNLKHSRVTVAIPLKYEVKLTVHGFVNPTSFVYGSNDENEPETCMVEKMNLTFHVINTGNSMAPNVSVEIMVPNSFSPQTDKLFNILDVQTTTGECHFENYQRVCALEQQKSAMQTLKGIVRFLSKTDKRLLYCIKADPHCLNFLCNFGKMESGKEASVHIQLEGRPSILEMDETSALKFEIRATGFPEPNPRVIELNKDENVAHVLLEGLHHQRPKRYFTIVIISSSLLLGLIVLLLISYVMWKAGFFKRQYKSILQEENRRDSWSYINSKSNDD
T1 sequence (P26010 20-798): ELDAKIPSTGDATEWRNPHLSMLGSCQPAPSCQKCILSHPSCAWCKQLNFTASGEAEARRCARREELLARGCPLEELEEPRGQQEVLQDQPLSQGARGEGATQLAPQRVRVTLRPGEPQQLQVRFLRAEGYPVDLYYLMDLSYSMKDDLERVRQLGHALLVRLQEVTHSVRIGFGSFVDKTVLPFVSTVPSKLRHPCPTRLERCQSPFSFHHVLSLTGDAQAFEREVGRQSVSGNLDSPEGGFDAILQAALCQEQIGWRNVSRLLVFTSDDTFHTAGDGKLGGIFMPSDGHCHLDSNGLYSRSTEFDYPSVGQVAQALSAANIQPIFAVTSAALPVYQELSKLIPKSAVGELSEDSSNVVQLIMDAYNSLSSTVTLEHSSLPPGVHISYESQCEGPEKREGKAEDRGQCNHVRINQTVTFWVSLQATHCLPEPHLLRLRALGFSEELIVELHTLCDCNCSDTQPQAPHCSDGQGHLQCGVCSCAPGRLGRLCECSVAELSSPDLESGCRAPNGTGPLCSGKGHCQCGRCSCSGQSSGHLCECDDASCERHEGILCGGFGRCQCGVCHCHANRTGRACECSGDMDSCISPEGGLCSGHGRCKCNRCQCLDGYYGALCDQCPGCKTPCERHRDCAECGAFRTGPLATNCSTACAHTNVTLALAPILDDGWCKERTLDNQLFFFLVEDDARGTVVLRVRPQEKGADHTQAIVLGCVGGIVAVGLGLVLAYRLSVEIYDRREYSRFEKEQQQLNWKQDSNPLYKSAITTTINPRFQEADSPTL
Chain of α4β1 integrin (P13612 34-1032): as the sequence (P13612 34-1032) above
Chain of α4β1 integrin (P05556 21-798): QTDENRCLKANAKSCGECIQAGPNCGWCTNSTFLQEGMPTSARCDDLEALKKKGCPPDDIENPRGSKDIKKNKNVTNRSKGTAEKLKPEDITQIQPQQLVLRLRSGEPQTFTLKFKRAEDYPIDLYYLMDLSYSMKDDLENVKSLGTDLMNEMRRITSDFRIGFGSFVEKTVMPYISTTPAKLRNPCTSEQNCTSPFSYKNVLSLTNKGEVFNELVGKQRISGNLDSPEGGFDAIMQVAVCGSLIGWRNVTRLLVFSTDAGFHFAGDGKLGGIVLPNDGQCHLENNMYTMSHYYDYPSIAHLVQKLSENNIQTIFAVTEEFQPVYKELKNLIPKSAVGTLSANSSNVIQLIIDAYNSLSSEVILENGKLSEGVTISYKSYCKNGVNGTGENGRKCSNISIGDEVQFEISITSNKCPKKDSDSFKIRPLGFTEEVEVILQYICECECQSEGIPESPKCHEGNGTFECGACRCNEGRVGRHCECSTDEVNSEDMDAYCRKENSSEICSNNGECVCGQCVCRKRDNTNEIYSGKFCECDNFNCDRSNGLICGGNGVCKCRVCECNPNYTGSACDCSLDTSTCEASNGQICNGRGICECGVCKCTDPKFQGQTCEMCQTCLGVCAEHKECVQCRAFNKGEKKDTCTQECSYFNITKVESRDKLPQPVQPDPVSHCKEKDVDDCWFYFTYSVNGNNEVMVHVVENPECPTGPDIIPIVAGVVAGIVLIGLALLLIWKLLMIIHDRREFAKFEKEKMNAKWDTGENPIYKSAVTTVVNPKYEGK

Structure (SMILES) | IC50 [1] [nM] | IC50 [2] [nM] | IC50 [3, 4] [nM] | IC50 ([1]; protocol not given) [nM] | IC50 ([3]; Protocol 5, RPMI-8866 cells with LOF mutation of ITGB7, VCAM, read-out: Mean IC50 α4β1 KO) [nM]
Cn1c(=O)c(-c2cccc3c(C[C@H](NC(=O)c4c(F)cc([C@H]5C[C@@H](N(C)C)C5)cc4F)C(=O)O)cccc23)c(C(F)(F)F)c2ccccc21 [Compound 416] | 100 to 1000 | 100 to 1000 |  |  | 
Cn1c(=O)c(-c2cccc3c(C[C@H](NC(=O)c4c(F)cc(CCN5CC(F)C5)cc4F)C(=O)O)cccc23)c(C(F)(F)F)c2ccccc21 [Compound 371] | 100 to 1000 | 100 to 1000 |  |  | 
Cn1c(=O)c(-c2cccc3c(C[C@H](NC(=O)C45CC(N6CCOCC6)(C4)C5)C(=O)O)cccc23)c(C(F)(F)F)c2ccccc21 [Compound 459] | 100 to 1000 | 100 to 1000 |  |  | 
Cn1c(=O)c(-c2cccc3c(C[C@H](NC(=O)[C@]4(C)CC[C@@H](N5CC(F)(F)C5)CC4)C(=O)O)cccc23)c(C(F)(F)F)c2ccccc21 [Compound 399] | 100 to 1000 | 10 to 100 |  |  | 
Cn1c(=O)c(-c2cccc3c(C[C@H](NC(=O)c4c(F)cccc4C(F)(F)F)C(=O)O)cccc23)c(C(F)(F)F)c2ccccc21 [Compound 443] | 100 to 1000 | > 1000 |  |  | 
CC[C@@](Cc1cccs1)(C(=O)N[C@@H](Cc1cccc2c(-c3c(C(F)(F)F)ccn(C)c3=O)nccc12)C(=O)O)c1ccccc1 [Compound 291] | 100 to 1000 | 100 to 1000 |  |  | 
Cn1c(=O)c(-c2cccc3c(C[C@H](NC(=O)[C@]4(C)CC[C@@H](N5CCS(=O)(=O)CC5)CC4)C(=O)O)cccc23)c(C(F)(F)F)c2ccccc21 [Compound 404] | 100 to 1000 | 100 to 1000 |  |  | 
COCCc1cc(F)c(C(=O)N[C@@H](Cc2cccc3c(-c4c(C(F)(F)F)c5ccccc5n(C)c4=O)cccc23)C(=O)O)c(F)c1 [Compound 368] | 100 to 1000 | 100 to 1000 |  |  | 
Cn1c(=O)c(-c2cccc3c(C[C@H](NC(=O)c4c(F)ccc(C(F)(F)F)c4F)C(=O)O)cccc23)c(C(F)(F)F)c2ccccc21 [Compound 461] | 100 to 1000 | 100 to 1000 |  |  | 
Cc1cncc(C)c1-c1cc(F)c(C(=O)N[C@@H](Cc2cccc3c(-c4c(C(F)(F)F)c5ccccc5n(C)c4=O)cccc23)C(=O)O)c(F)c1 [Compound 305] | 100 to 1000 | > 1000 |  |  | 
Cc1n[nH]c(C(F)(F)F)c1-c1cc(F)c(C(=O)N[C@@H](Cc2cccc3c(-c4c(C(F)(F)F)c5ccccc5n(C)c4=O)cccc23)C(=O)O)c(F)c1 [Compound 310] | 100 to 1000 | 100 to 1000 |  |  | 
Cn1c(=O)c(-c2cccc3c(C[C@H](NC(=O)c4c(F)cc(NC5(C(F)F)CC5)cc4F)C(=O)O)cccc23)c(C(F)(F)F)c2ccccc21 [Compound 387] | 100 to 1000 | 100 to 1000 |  |  | 
Cn1c(=O)c(-c2cccc3c(C[C@H](NC(=O)c4c(F)ccc(-c5ccncc5)c4F)C(=O)O)cccc23)c(C(F)(F)F)c2ccccc21 [Compound 311] | 100 to 1000 | 100 to 1000 |  |  | 
Cn1c(=O)c(-c2cccc3c(C[C@H](NC(=O)C45CC(NCC(F)(F)F)(C4)C5)C(=O)O)cccc23)c(C(F)(F)F)c2ccccc21 [Compound 447] | 100 to 1000 | 100 to 1000 |  |  | 
Cn1c(=O)c(-c2cccc3c(C[C@H](NC(=O)[C@]4(C)CC[C@H](N5CC(F)(F)C5)CC4)C(=O)O)cccc23)c(C(F)(F)F)c2ccccc21 [Compound 400] | 100 to 1000 | 100 to 1000 |  |  | 
Cn1c(=O)c(-c2cccc3c(C[C@H](NC(=O)c4c(F)cc(N5CCOc6ccccc65)cc4F)C(=O)O)cccc23)c(C(F)(F)F)c2ccccc21 [Compound 332] | 100 to 1000 | 100 to 1000 |  |  | 
Cn1c(=O)c(-c2cccc3c(C[C@H](NC(=O)c4c(F)ccc(C5CCC(F)(F)CC5)c4F)C(=O)O)cccc23)c(C(F)(F)F)c2ccccc21 [Compound 382] | 100 to 1000 | 100 to 1000 |  |  | 
Cn1c(C(=O)N[C@@H](Cc2cccc3c(-c4c(C(F)(F)F)c5ccccc5n(C)c4=O)cccc23)C(=O)O)cnc1C1CCOCC1 [Compound 328] | 100 to 1000 | 100 to 1000 |  |  | 
CN(C)c1ccc2c(c1)c(C(F)(F)F)c(-c1cccc3c(C[C@H](NC(=O)[C@]4(C)CC[C@@H](N5CCOC[C@@H]5C(F)(F)F)CC4)C(=O)O)cccc13)c(=O)n2C [Compound 409] | 100 to 1000 | 100 to 1000 |  |  | 
CN1CCC(c2cc(F)c(C(=O)N[C@@H](Cc3cccc4c(-c5c(C(F)(F)F)c6ccccc6n(C)c5=O)cccc34)C(=O)O)c(F)c2)C1 (stereo partly shown) [Compound 372] | 100 to 1000 | 100 to 1000 |  |  | 
CN(C)Cc1cccc2c(-c3cccc4c(C[C@H](NC(=O)[C@]5(C)CC[C@H](N6CCC(F)(F)CC6)CC5)C(=O)O)cccc34)nccc12 [Compound 425] | 100 to 1000 | 100 to 1000 |  |  | 
Cn1c(=O)c(-c2cccc3c(C[C@H](NC(=O)c4c(F)cc(N5CCOC[C@@H]5c5ccccc5)cc4F)C(=O)O)cccc23)c(C(F)(F)F)c2ccccc21 [Compound 336] | 100 to 1000 | 100 to 1000 |  |  | 
Cn1c(=O)c(-c2cccc3c(C[C@H](NC(=O)c4c(F)cc(N5CC6C(C5)C6(F)F)cc4F)C(=O)O)cccc23)c(C(F)(F)F)c2ccccc21 (stereo partly shown) [Compound 389] | 100 to 1000 | 100 to 1000 |  |  | 
Cn1c(=O)c(-c2cccc3c(C[C@H](NC(=O)c4c(F)cc(C5CCNCC5)cc4F)C(=O)O)cccc23)c(C(F)(F)F)c2ccccc21 [Compound 365] | 100 to 1000 | 100 to 1000 |  |  | 
CC[C@@](Cc1cccs1)(C(=O)N[C@@H](Cc1cccc2c(-n3c(=O)ccn(C)c3=O)cccc12)C(=O)O)c1ccccc1 [Compound 292] | 100 to 1000 | 100 to 1000 |  |  | 
Cc1cccc(C)c1-c1cc(F)c(C(=O)N[C@@H](Cc2cccc3c(-n4c(=O)cc(CCN5CC(F)C5)n(C)c4=O)cccc23)C(=O)O)c(F)c1 [Compound 1057] |  |  |  | 10 to 100 | > 1000
Cn1c(=O)c(-c2cccc3c(C[C@H](NC(=O)c4c(F)cc(N(CC(F)(F)F)C5COC5)cc4F)C(=O)O)cccc23)c(C(F)(F)F)c2ccccc21 [Compound 380] | 10 to 100 |  | > 1000 |  | 
Cn1ccc(C(F)(F)F)c(-c2cccc3c(C[C@H](NC(=O)c4c(F)cc(N5CCOc6ccccc65)cc4F)C(=O)O)cccc23)c1=O [Compound 439] | 10 to 100 |  | > 1000 |  | 

Next, values leading:

IC50 [1] [nM] | IC50 [2] [nM] | IC50 [3, 4] [nM] | IC50 ([1]; protocol not given) [nM] | IC50 ([3]; Protocol 5, RPMI-8866 cells with LOF mutation of ITGB7, VCAM, read-out: Mean IC50 α4β1 KO) [nM] | Structure (SMILES)
< 10 |  | > 1000 |  |  | CN(C)c1ccc2c(-c3cccc4c(C[C@H](NC(=O)c5c(F)cc(N6CCOC[C@@H]6C(F)(F)F)cc5CN5CCOCC5)C(=O)O)cccc34)nccc2c1 [Compound 299]
< 10 |  | > 1000 |  |  | CN(C)Cc1ccc2c(-c3cccc4c(C[C@H](NC(=O)c5c(F)cc(N6CCOC[C@@H]6C(F)(F)F)cc5CN5CCOCC5)C(=O)O)cccc34)nccc2c1 [Compound 557]
10 to 100 |  | > 1000 |  |  | Cc1ccnc(C)c1-c1ccc(F)c(C(=O)N[C@@H](Cc2cccc3c(-c4c(C(F)(F)F)c5ccccc5n(C)c4=O)cccc23)C(=O)O)c1F [Compound 315]
< 10 |  | > 1000 |  |  | CN(C)C1CCN(Cc2cc(N3CCOC[C@@H]3C(F)(F)F)cc(F)c2C(=O)N[C@@H](Cc2cccc3c(-c4cccc5ccncc45)cccc23)C(=O)O)CC1 [Compound 300]
10 to 100 |  | > 1000 |  |  | Cn1c(=O)c(-c2cccc3c(C[C@H](NC(=O)c4c(F)cc(N(CC(F)(F)F)CC(F)(F)F)cc4F)C(=O)O)cccc23)c(C(F)(F)F)c2ccccc21 [Compound 324]
10 to 100 |  | > 1000 |  |  | Cn1c(=O)c(-c2cccc3c(C[C@H](NC(=O)C4(C)CCN(C5CCOCC5)CC4)C(=O)O)cccc23)c(C(F)(F)F)c2ccccc21 [Compound 362]
10 to 100 |  | > 1000 |  |  | Cn1c(=O)c(-c2cccc3c(C[C@H](NC(=O)C4(C)CCN([C@H]5CCOC5)CC4)C(=O)O)cccc23)c(C(F)(F)F)c2ccccc21 [Compound 413]
10 to 100 |  | > 1000 |  |  | Cc1cncc(C)c1-c1ccc(F)c(C(=O)N[C@@H](Cc2cccc3c(-c4c(C(F)(F)F)c5ccccc5n(C)c4=O)cccc23)C(=O)O)c1F [Compound 314]
< 10 |  | > 1000 |  |  | Cn1c(=O)c(-c2cccc3c(C[C@H](NC(=O)c4c(F)cccc4CN4CCCC4)C(=O)O)cccc23)c(C(F)(F)F)c2ccccc21 [Compound 351]
10 to 100 |  | > 1000 |  |  | CC[C@@H](Nc1cc(F)c(C(=O)N[C@@H](Cc2cccc3c(-c4c(C(F)(F)F)c5ccccc5n(C)c4=O)cccc23)C(=O)O)c(F)c1)C(F)(F)F [Compound 321]
10 to 100 |  | > 1000 |  |  | Cn1c(=O)c(-c2cccc3c(C[C@H](NC(=O)c4c(F)ccc(-c5cccnc5)c4F)C(=O)O)cccc23)c(C(F)(F)F)c2ccccc21 [Compound 312]
< 10 |  | > 1000 |  |  | CN(C)Cc1cccc2c(-c3cccc4c(C[C@H](NC(=O)[C@]5(C)CC[C@@H](N6CCOC[C@@H]6C(F)(F)F)CC5)C(=O)O)cccc34)nccc12 [Compound 418]
< 10 |  | > 1000 |  |  | CN(C)Cc1cccc2c(-c3cccc4c(C[C@H](NC(=O)c5c(F)cc(N6CCOC[C@@H]6C(F)(F)F)cc5CN5CCOCC5)C(=O)O)cccc34)nccc12 [Compound 298]
